Source: US11166460B2, “α-amino acrylate microbicide, and preparation method therefor and uses thereof” (priority 2017, dated 2021)
In brackets after ≈: the same amount, converted by molar mass. Read-outs that look alike come from different tables or passages of the source.

Tests used:
Cercospora arachidicola = experiment: Fungicidal activity, fungi growth rate method, CA; assay type: cell-based; conditions: 50 μg/mL; for inhibition at 50 µg/mL: Mycosphaerella arachidis
Pellicularia sasakii = experiment: Fungicidal activity, fungi growth rate method, PS; assay type: cell-based; conditions: 50 μg/mL
Physalospora piricola = experiment: Fungicidal activity, fungi growth rate method, PP; assay type: cell-based; conditions: 50 μg/mL
Alternaria solani = experiment: Fungicidal activity, fungi growth rate method, AS; assay type: cell-based; conditions: 50 μg/mL; for inhibition at 50 µg/mL: Alternaria solani
Sclerotinia sclerotiorum = experiment: microbe, parasite or virus in culture; assay type: cell-based
[1] = tested on: Phytophthora infestans (Mont) de Bary; experiment: microbe, parasite or virus in culture; assay type: cell-based; conditions: for inhibition at 50 µg/mL: Phytophthora infestans
[2] = tested on: tobacco mosaic virus (TMV); experiment: Anti-TMV protective activity (protection mode), live friction inoculation on tobacco seedlings; assay type: in vivo; conditions: Tobacco mosaic virus, read-out: Anti-TMV activity, Protection effect (inhibition)
[3] = tested on: tobacco mosaic virus (TMV); experiment: Anti-TMV inactivation activity (inactivation mode), compound mixed with TMV before inoculation of tobacco leaves; assay type: in vivo; conditions: Tobacco mosaic virus, read-out: Anti-TMV activity, Inactivation effect (inhibition)
Rhizoctonia cerealis = experiment: Fungicidal activity, fungi growth rate method, RC; assay type: cell-based; conditions: 50 μg/mL; for inhibition at 50 µg/mL: Ceratobasidium cereale
wheat Gibberella zeae = experiment: microbe, parasite or virus in culture; assay type: cell-based; conditions: for inhibition at 50 µg/mL: Fusarium graminearum
Botrytis cinerea = experiment: Fungicidal activity, fungi growth rate method, BC; assay type: cell-based; conditions: 50 μg/mL; for inhibition at 50 µg/mL: Botrytis cinerea
[4] = tested on: tobacco mosaic virus (TMV); experiment: Anti-TMV curative activity (treatment mode), live friction inoculation on tobacco seedlings; assay type: in vivo; conditions: for inhibition at 100 µg/mL: Tobacco mosaic virus
[5] = tested on: tobacco mosaic virus (TMV); experiment: Anti-TMV inducing activity (induction mode), tobacco seedlings; assay type: in vivo; conditions: Tobacco mosaic virus
[6] = read-out: Fungicidal activity (inhibition) against CA: Cercospora arachidicola
[7] = read-out: Fungicidal activity, inhibition, CA
[8] = read-out: Fungicidal activity (inhibition) against PS: Pellicularia sasakii
[9] = read-out: Fungicidal activity, inhibition, PS
[10] = read-out: Fungicidal activity (inhibition) against PP: Physalospora piricola
[11] = read-out: Fungicidal activity, inhibition, PP
[12] = read-out: Fungicidal activity (inhibition) against AS: Alternaria solani
[13] = read-out: Fungicidal activity, inhibition, AS
[14] = Sclerotinia sclerotiorum, 50 μg/mL, read-out: Fungicidal activity (inhibition) against SS: Sclerotinia sclerotiorum
[15] = Sclerotinia sclerotiorum, 50 μg/mL, read-out: Fungicidal activity, inhibition, SS
[16] = read-out: Fungicidal activity (inhibition) against PI: Phytophthora infestans (Mont) de Bary
[17] = read-out: Fungicidal activity, inhibition, PI
[18] = read-out: Fungicidal activity (inhibition) against RC: Rhizoctonia cerealis
[19] = read-out: Fungicidal activity, inhibition, RC
[20] = read-out: Fungicidal activity (inhibition) against GZ: wheat Gibberella zeae
[21] = read-out: Fungicidal activity, inhibition, GZ
[22] = read-out: Fungicidal activity (inhibition) against BC: Botrytis cinerea
[23] = read-out: Fungicidal activity, inhibition, BC
[24] = read-out: Anti-TMV activity, Curative effect (inhibition), 100 μg/mL, tobacco seedlings, checked on seventh day
[25] = read-out: Anti-TMV activity, Induction effect (inhibition), 100 μg/mL, tobacco seedlings
[26] = 100 μg/mL, tobacco seedlings, checked on seventh day
[27] = 100 μg/mL, tobacco seedlings, read-out: Anti-TMV activity, Induction effect (inhibition)
[28] = 100 μg/mL, tobacco leaves, checked on seventh day

SMILES | inhibition at 50 µg/mL (Cercospora arachidicola; [6]) | inhibition at 50 µg/mL (Cercospora arachidicola; [7]) | inhibition at 50 µg/mL (Pellicularia sasakii; [8]) | inhibition at 50 µg/mL (Pellicularia sasakii; [9]) | inhibition at 50 µg/mL (Physalospora piricola; [10]) | inhibition at 50 µg/mL (Physalospora piricola; [11]) | inhibition at 50 µg/mL (Alternaria solani; [12]) | inhibition at 50 µg/mL (Alternaria solani; [13]) | inhibition at 50 µg/mL (Sclerotinia sclerotiorum; [14]) | inhibition at 50 µg/mL (Sclerotinia sclerotiorum; [15]) | inhibition at 50 µg/mL [1, 16] | inhibition at 50 µg/mL [1, 17] | inhibition at 100 µg/mL [2] | inhibition at 100 µg/mL [3] | inhibition at 50 µg/mL (Rhizoctonia cerealis; [18]) | inhibition at 50 µg/mL (Rhizoctonia cerealis; [19]) | inhibition at 50 µg/mL (wheat Gibberella zeae; [20]) | inhibition at 50 µg/mL (wheat Gibberella zeae; [21]) | inhibition at 50 µg/mL (Botrytis cinerea; [22]) | inhibition at 100 µg/mL [4, 24] | further results
O=C(N/C(=C\c1ccco1)C(=O)N1CCC(O)(c2ccc(Br)cc2)CC1)c1ccccc1 [Compound 25, (Z)-N-[1-[[4-(4-bromophenyl)-4-hydroxy-1-piperidinyl]carbonyl]-2-(2-furanyl)ethenyl]benzamide] | < 25% | 22% | < 30% | 27% | < 20% | 15% | < 30% | 16% | 100% | 100% | < 25% | 10% | 46% | 31% | 36% | 36% | < 45% | 31% | ≤ 20% | 55% | EC90 (Sclerotinia sclerotiorum; Sclerotinia sclerotiorum, read-out: EC90 against S. sclerotiorum in vitro): 221 µg/mL (≈ 446 µM); melting point: 134 to 135 °C; inhibition at 50 µg/mL (Botrytis cinerea; [23]): 20%
O=C(N/C(=C\c1ccccc1)C(=O)N1CCC(O)(c2ccc(Br)cc2)CC1)c1ccccc1 [Compound 76, (Z)-N-[1-[[4-(4-bromophenyl)-4-hydroxy-1-piperidinyl]carbonyl]-2-phenylethenyl]benzamide, reference compound] | 24% | 24% | 14% | 14% | 15% | 15% | 14% | 14% | 50% | 50% | 24% | 24% | 38% | 29% | 15% | 15% | 43% | 43% | 18% | 0% | inhibition at 100 µg/mL [5, 25]: 15%; inhibition at 50 µg/mL (Botrytis cinerea; [23]): 18%
CNCC(=O)N[C@@H](CO)C(=O)N[C@H]1[C@H](O)[C@@H](O)[C@H](n2ccc(N)nc2=O)O[C@@H]1C(N)=O [Ningnanmycin, ningnanmycin, reference compound] |  |  |  |  |  |  |  |  |  |  |  |  | 71% | 58% |  |  |  |  |  | 63% | inhibition at 100 µg/mL [5, 25]: 82%; Anti-TMV activity, Curative effect (inhibition) [4, 26]: 62%
NC(=O)c1ncn([C@@H]2O[C@H](CO)[C@@H](O)[C@H]2O)n1 [Ribavirin, ribavirin, reference compound] |  |  |  |  |  |  |  |  |  |  |  |  | 58% |  |  |  |  |  |  | 28% | inhibition at 100 µg/mL [5, 27]: 4%; inhibition at 100 µg/mL [3, 28]: 81%
Cc1ccc(NC(=O)c2snnc2C)cc1Cl [TDL, Tiadinil, reference compound] |  |  |  |  |  |  |  |  |  |  |  |  |  |  |  |  |  |  |  |  | inhibition at 100 µg/mL [5, 27]: 73%; inhibition at 100 µg/mL [2, 26]: 32%; inhibition at 100 µg/mL [3, 28]: 55%; inhibition at 100 µg/mL ([4]; 100 μg/mL, tobacco seedlings, checked on seventh day, read-out: Anti-TMV activity, Curative effect (inhibition)): 49%
CO/C=C(/C(=O)OC)c1ccccc1Oc1cc(Oc2ccccc2C#N)ncn1 [azoxystrobin, reference compound] |  |  |  |  |  |  |  |  |  |  |  |  |  |  |  |  |  |  |  |  | Fungicidal activity (inhibition) against CA: Cercospora arachidicola (Cercospora arachidicola): 81%; Fungicidal activity (inhibition) against PS: Pellicularia sasakii (Pellicularia sasakii): 92%; Fungicidal activity (inhibition) against PP: Physalospora piricola (Physalospora piricola): 81%; Fungicidal activity (inhibition) against AS: Alternaria solani (Alternaria solani): 79%; Fungicidal activity, inhibition, SS (Sclerotinia sclerotiorum; 50 μg/mL): 100%; Fungicidal activity (inhibition) against PI: Phytophthora infestans (Mont) de Bary ([1]; 50 μg/mL): 91%; Fungicidal activity (inhibition) against RC: Rhizoctonia cerealis (Rhizoctonia cerealis): 67%; Fungicidal activity (inhibition) against GZ: wheat Gibberella zeae (wheat Gibberella zeae; 50 μg/mL): 100%; Fungicidal activity (inhibition) against BC: Botrytis cinerea (Botrytis cinerea): 78%
